Assays:
[1] = tested on: Human PBMCs; assay: CD3/CD28 mediated PBMC proliferation assay; assay type: cell-based; details: proliferation of human PBMCs stimulated with anti-CD3 and anti-CD28, 72 hours, Cell Titer-Glo
Procedure, shortened: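 PBMCs pre-treated 30 min with compound, then stimulated on plate-bound anti-CD3 (coated at 5 μg/mL) plus soluble anti-CD28 (2 μg/mL final) for 72 h at 37 °C. Proliferation measured as ATP by CellTiter-Glo; EC50 versus vehicle controls from dose-response curves.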

[2] = tested on: Jurkat human acute T cell leukemia cells; assay: Jurkat IL-2 release assay; assay type: cell-based; details: IL-2 release from Jurkat cells stimulated with anti-CD3 and anti-CD28, 48 hours, ELISA
Procedure, shortened: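 Jurkat cells were pre-treated with compound curves 30 min at 37°C, then stimulated on plate-bound anti-CD3 (coated at 10 μg/mL) plus 1 μg/mL soluble anti-CD28 for 48 h. IL-2 in supernatant quantified by ELISA; EC50 from dose-response against vehicle-treated controls.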

[3] = molecular target: RLK/TXK (Homo sapiens (Human), UniProt P42681); assay: RLK/TXK kinase inhibition assay; assay type: biochemical; details: micro-fluidic detection, 3 hours at 25° C.
Chain of RLK/TXK (P42681 whole entry): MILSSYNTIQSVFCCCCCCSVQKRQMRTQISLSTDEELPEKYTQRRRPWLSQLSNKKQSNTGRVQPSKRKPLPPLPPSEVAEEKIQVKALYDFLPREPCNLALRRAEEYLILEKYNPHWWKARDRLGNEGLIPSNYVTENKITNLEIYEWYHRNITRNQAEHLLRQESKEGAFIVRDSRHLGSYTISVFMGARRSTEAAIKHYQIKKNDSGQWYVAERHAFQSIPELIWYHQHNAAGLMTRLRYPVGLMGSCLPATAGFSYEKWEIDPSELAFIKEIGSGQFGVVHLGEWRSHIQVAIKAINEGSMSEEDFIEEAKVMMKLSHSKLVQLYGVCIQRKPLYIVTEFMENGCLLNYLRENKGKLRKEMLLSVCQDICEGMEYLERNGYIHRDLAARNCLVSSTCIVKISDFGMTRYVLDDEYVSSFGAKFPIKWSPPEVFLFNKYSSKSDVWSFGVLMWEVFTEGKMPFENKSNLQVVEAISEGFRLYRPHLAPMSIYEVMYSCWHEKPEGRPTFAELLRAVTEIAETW
Experimental: The in vitro kinase assays were performed at Nanosyn utilizing micro-fluidic detection technology. The test compounds were serially pre-diluted in DMSO and added, by the acoustic dispensing (Labcyte® 550), directly to 384well assay plates into 10 uL of a buffer with enzyme comprising: 100 mM HEPES, pH7.5, 5 mM MgCl2, 0.1% bovine serum albumin, 1 mM DTT, 0.01% Triton X-100 and the enzyme. Final DMSO concentration was maintained at 1% in all samples, including the controls. The reactions were initiated by addition of ATP (to the specified concentration) and the fluorescently labeled peptide substrate to a final concentration of 1 uM, and incubated for 3 hours at 25° C. Following incubation, the reactions were quenched by addition of 40 μL of termination buffer (100 mM HEPES, pH7.5, 0.01% Triton X-100, 50 mM EDTA). Terminated plates were analyzed using Caliper LabChip® 3000 microfluidic electrophoresis instrument (Caliper Life Sciences/Perkin Elmer). The enzymatic modification of the peptide substrate (phosphorylation) results in a change of net charge enabling electrophoretic separation of product from substrate. As substrate and product are separated by electrophoresis, two peaks of fluorescence are observed. Change in the relative fluorescence intensity of the substrate and product peaks was the parameter measured, reflecting enzyme activity. In the presence of inhibitor, the ratio between product and substrate is altered: signal of the product decreases, while the signal of the substrate increases. Activity in each test sample was determined as the product to sum ratio (PSR): P/(S+P), where P is the peak height of the product and S is the peak height of the […]. For each compound, enzyme activity was measured at 12 concentrations spaced by 3× dilution intervals. Negative control samples (0%-inhibition in the absence of inhibitor, DMSO only) and positive control samples (100%-inhibition, in the absence of enzyme or in the presence of control inhibitor) were assembled in replicates of four and were used to calculate %-inhibition values in the presence of compounds. Percent inhibition (Pinh) was determined using the following equation: Pinh=(PSR0%−PSRinh)/(PSR0%−PSR100%)*100, where PSRinh is the product sum ratio in the presence of inhibitor, PSR0% is the product sum ratio in the absence of inhibitor and PSR100% is the product sum ratio in 100%-inhibition control samples. To determine IC50 values, the inhibition curves (Pinh versus inhibitor concentration) were fitted by 4 parameter sigmoid dose-response model using XLfit software (IDBS).

Row | SMILES | EC50 [2] [µM] | EC50 [3] [µM] | EC50 [1] [µM]
1 | C=CC(=O)Nc1cccc(-n2c(NC(=O)c3ccc(C(F)F)s3)nc3cc(CN[C@@H](C)C(C)(C)C)ccc32)c1 [Compound 2] | < 0.01 | < 0.01 | 0.01 to 0.1
2 | C=CC(=O)Nc1cccc(-n2c(NC(=O)c3ccnn3C)nc3cc(CN[C@@H](C)C(C)(C)C)ccc32)c1 [Compound 28] | < 0.01 | < 0.01 | 0.01 to 0.1

More lines, main results first:

Row | EC50 [2] [µM] | EC50 [3] [µM] | SMILES | EC50 [1] [µM]
3 | 0.01 to 0.1 | < 0.01 | C=CC(=O)Nc1cccc(-n2c(NC(=O)c3cccc(C#N)c3)nc3cc(CN[C@@H](C)C(C)(C)C)ccc32)c1 [Compound 9] | 0.01 to 0.1
4 | < 0.01 | < 0.01 | C=CC(=O)Nc1cccc(-n2c(NC(=O)c3ccc(-c4cnco4)s3)nc3cc(CN[C@@H](C)C(C)(C)C)ccc32)c1 [Compound 25] | < 0.01
5 | < 0.01 | < 0.01 | C=CC(=O)Nc1cccc(-n2c(NC(=O)c3ccno3)nc3cc(CN[C@@H](C)C(C)(C)C)ccc32)c1 [Compound 38] | 0.01 to 0.1

From patent US10562893B2, “Benzimidazoles derivatives as Tec kinases family inhibitors” (GB005, Inc., priority 2015, dated 2020)
